Measured values as given in patent US11541050B2, “Pyrimidine derivatives for the treatment of viral infections” (JANSSEN SCIENCES IRELAND UC, priority 2011, dated 2023).

Key:
[1] = system: interferon-stimulated responsive elements (ISRE) in HEK-ISREluc cells; test: Activation of ISRE promoter elements by conditioned media from compound-treated PBMC; assay type: cell-based, human; set-up: unit not given here; conditions: conditioned media from compound-treated PBMC on HEK-ISREluc cells
Experimental: The potential of compounds to induce IFN-I was also evaluated by measuring the activation of interferon-stimulated responsive elements (ISRE) by conditioned media from PBMC. […] The plasmid pISRE-Luc from Clontech (ref. 631913) contains 5 copies of this ISRE element, followed by the firefly luciferase ORF. A HEK293 cell line stably transfected with pISRE-Luc (HEK-ISREluc) was established to profile of the conditioned PBMC cell culture media.
Briefly, PBMCs were prepared from buffy coats of at least two donors using a standard Ficoll centrifugation protocol. Isolated PBMCs were resuspended in RPMI medium supplemented with 10% human AB serum and 2×10^5 cells/well were dispensed into 384-well plates containing compounds (70 μL total volume). After overnight incubation, 10 μL of supernatant was transferred to 384-well plates containing 5×10^3 HEK-ISREluc cells/well in 30 μL (plated the day before). Following 24 hours of incubation, activation of the ISRE elements was measured by assaying luciferase activity using 40 μL/well Steady Lite Plus substrate (Perkin Elmer) and measured with ViewLux ultraHTS microplate imager (Perkin Elmer). The stimulating activity of each compound on the HEK-ISREluc cells was reported as LEC value, defined as the compound concentration applied to the PBMCs resulting in a luciferase activity at least two fold above the standard deviation of the assay. The LEC in turn indicates the degree of ISRE activation on transfer of a defined amount of PBMC culture medium. Recombinant interferon α-2a (Roferon-A) was used as a standard control compound.
For a given compound, the LEC value obtained from this assay were in the same range as the EC50 values obtained from the “suppression of HCV replication assay.” Thus, it is possible to compare the potential of compounds to induce IFN-I by PBMC, measured by either of the 2 assays.

[2] = biological target: T1, human TLR7 (wild type sequence) (Homo sapiens, UniProt Q9NYK1); test: TLR7 cellular NFκB-luc reporter assay, wild type TLR7; assay type: cell-based; set-up: unit not given here; conditions: lowest effective concentration, wild type TLR7 (compounds 74 onward)
T1 construct: expressed in transfected cells; host or cells: HEK293
T1 sequence (Q9NYK1 27-1049): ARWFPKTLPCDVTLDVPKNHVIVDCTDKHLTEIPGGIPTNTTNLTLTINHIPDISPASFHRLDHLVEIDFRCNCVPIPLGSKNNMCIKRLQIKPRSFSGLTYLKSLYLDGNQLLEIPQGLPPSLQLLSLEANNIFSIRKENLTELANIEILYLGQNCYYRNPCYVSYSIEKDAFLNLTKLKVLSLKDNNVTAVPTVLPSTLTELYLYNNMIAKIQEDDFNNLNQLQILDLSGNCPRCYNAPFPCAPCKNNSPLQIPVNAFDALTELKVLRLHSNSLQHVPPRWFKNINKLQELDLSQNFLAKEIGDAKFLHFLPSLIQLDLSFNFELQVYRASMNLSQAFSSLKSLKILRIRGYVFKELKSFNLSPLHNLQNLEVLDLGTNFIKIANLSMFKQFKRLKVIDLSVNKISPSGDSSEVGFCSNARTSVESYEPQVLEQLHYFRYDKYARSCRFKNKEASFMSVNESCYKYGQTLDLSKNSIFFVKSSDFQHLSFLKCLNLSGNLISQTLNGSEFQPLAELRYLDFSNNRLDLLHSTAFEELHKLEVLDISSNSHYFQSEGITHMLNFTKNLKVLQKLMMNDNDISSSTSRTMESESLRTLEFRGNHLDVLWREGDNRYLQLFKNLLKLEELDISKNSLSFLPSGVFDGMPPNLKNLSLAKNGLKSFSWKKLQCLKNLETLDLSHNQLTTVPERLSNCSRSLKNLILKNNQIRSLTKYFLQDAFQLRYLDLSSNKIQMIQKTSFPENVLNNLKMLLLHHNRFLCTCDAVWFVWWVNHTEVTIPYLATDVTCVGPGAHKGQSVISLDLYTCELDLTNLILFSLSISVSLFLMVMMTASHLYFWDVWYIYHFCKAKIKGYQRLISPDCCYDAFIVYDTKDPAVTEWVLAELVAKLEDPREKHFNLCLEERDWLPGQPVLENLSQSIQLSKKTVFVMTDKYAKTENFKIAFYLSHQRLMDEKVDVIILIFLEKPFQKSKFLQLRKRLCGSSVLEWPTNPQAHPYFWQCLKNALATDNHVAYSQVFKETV
Procedure, shortened: (§1)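 HEK293 cells were transiently transfected for 48 h with a CMV-driven wild-type or LRR2-deletion TLR7 or TLR8 plasmid plus an NFκB-luc reporter. They were then exposed to compound for 6 h at 37 °C and luciferase was read. LEC is the concentration giving an effect at least twofold above the assay SD, from quadruplicate dose-response curves.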

[3] = biological target: T2, human TLR8 (wild type sequence) (Homo sapiens, UniProt Q9NR97); test: TLR8 cellular NFκB-luc reporter assay, wild type TLR8; assay type: cell-based; set-up: unit not given here; conditions: lowest effective concentration; for TLR 8 wt LEC: wild type TLR8 (compounds 74 onward); for TLR8-wt_LEC: wild type TLR8 (compounds 1-73)
T2 construct: expressed in transfected cells; host or cells: HEK293
T2 sequence (Q9NR97 27-1041): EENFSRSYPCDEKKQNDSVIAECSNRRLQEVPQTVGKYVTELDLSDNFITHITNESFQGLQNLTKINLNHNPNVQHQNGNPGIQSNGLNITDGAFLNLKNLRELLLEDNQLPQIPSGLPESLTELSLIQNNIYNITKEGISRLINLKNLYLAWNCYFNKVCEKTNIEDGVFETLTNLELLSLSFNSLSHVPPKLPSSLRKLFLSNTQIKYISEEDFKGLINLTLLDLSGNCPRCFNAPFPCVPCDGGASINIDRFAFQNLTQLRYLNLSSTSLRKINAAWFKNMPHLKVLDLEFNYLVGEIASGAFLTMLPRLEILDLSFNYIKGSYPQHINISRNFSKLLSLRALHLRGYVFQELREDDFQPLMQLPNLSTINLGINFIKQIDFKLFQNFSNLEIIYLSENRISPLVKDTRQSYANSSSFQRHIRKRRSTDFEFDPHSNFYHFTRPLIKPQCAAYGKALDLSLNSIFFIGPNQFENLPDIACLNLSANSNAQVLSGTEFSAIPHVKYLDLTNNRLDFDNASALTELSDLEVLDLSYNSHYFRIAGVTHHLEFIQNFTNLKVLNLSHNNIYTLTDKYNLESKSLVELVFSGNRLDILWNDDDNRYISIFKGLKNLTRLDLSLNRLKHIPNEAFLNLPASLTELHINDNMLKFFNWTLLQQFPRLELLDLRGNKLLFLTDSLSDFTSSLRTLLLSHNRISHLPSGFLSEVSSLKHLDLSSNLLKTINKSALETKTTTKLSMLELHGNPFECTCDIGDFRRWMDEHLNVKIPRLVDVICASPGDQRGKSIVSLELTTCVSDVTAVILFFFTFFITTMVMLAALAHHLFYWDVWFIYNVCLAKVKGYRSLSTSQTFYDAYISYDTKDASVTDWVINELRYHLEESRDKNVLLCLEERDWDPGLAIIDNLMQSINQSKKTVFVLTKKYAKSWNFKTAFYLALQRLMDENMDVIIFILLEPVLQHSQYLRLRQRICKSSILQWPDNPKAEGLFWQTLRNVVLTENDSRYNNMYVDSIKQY
Procedure, shortened: as §1

[4] = system: HCV replicon in Huh-7 luc/neo cells; test: Suppression of HCV replicon replication by conditioned media from compound-treated PBMC; assay type: cell-based, HCV type 1 b; conditions: Hepatitis C virus, Huh-7; read-out: PBMC-HUH7_EC50
Procedure, shortened: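 Human PBMC (≥2 donors, RPMI + 10% human AB serum, 2×10^5 cells/well) incubated overnight with compounds; supernatant transferred onto Huh-7 luc/neo HCV 1b replicon cells. After 24 h, replication read as luciferase activity. Recombinant interferon α-2a served as standard.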

[5] = system: human TLR8 mutant sequence comprising a deletion in the second leucine-rich repeat; test: TLR8 cellular NFκB-luc reporter assay, mutant TLR8 with deletion in the second leucine-rich repeat; assay type: cell-based; set-up: unit not given here; conditions: lowest effective concentration, TLR8 mutant with deletion in second leucine-rich repeat
Procedure, shortened: (§2)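 HEK293 cells transiently co-transfected with CMV-driven mutant TLR7 or TLR8 plasmid plus NFκB-luc reporter, cultured 48 h at 37 °C, then exposed to compound for 6 h at 37 °C, 5% CO2. Luciferase luminescence measured; dose-response curves from quadruplicates.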

[6] = system: human TLR7 mutant sequence comprising a deletion in the second leucine-rich repeat; test: TLR7 cellular NFκB-luc reporter assay, mutant TLR7 with deletion in the second leucine-rich repeat; assay type: cell-based; set-up: unit not given here; conditions: lowest effective concentration, TLR7 mutant with deletion in second leucine-rich repeat
Procedure, shortened: as §2

Row | Structure (SMILES) | HEK-ISREluc LEC [1] | TLR 7 wt LEC [2] | TLR 8 wt LEC [3] | EC50 [4] [µM] | TLR8-dIRR2_LEC [5] | TLR7-dIRR2_LEC [6] | TLR8-wt_LEC [3]
1 | CCCCNc1nc(N)ncc1OCc1c[nH]nn1 [Compound 86] | 0.131 | 0.646 | 3.750 | – | – | – | –
2 | CCC[C@@H](CCO)Nc1nc(N)ncc1OCc1[nH]ccc(=O)c1OC [Compound 88] | 0.050 | – | – | – | – | – | –
3 | CCCC[C@@H](CO)Nc1nc(N)ncc1OCc1cccc(C(N)=O)n1 [Compound 80] | 0.027 | 0.560 | 0.041 | – | – | – | –
4 | CCCC[C@@H](CCO)Nc1nc(N)ncc1OCc1cc(C)nn1C [Compound 81] | 0.086 | 0.101 | 0.429 | – | – | – | –
5 | CCCCNc1nc(N)ncc1OCc1cccc(CO)c1 [Compound 77] | 0.137 | 0.449 | 0.623 | – | – | – | –
6 | CCCCNc1nc(N)ncc1OCc1ccc(C(=O)O)cc1OC [Compound 67] | – | – | – | 2.43 | >24.59 | 2.31 | >24.59
7 | CCCC[C@@H](CCOC(=O)NCC)Nc1nc(N)ncc1OC [Compound 89] | 0.526 | 1.670 | 6.670 | – | – | – | –
8 | CCCCNc1nc(N)ncc1OCCO [Compound 21] | – | – | – | 3.08 | 0.64 | 1.61 | 2.69
9 | CCCCNc1nc(N)ncc1OCc1ccc(C(=O)OC)cc1 [Compound 12] | – | – | – | 2.76 | 1.12 | 0.26 | 1.49
10 | CCCCNc1nc(N)ncc1OCCCc1ccc(OC)cc1 [Compound 2] | – | – | – | 0.04 | 0.31 | 0.02 | 1.34
11 | CCC[C@@H](CO)Nc1nc(N)ncc1OCc1ncc(C)c(OC)c1C [Compound 76] | 0.008 | 0.021 | 0.055 | – | – | – | –
12 | CCCC[C@@H](CO)Nc1nc(N)ncc1OCc1cc(C)nn1C [Compound 79] | 0.235 | 1.620 | 0.329 | – | – | – | –
13 | CCCCNc1nc(N)ncc1OCc1cc(-c2ccc(OC)cc2)no1 [Compound 35] | – | – | – | 1.5 | 1.66 | 0.39 | 1.67
